Results on 17 compounds are retold here after patent EP3722296B1, “DIHYDRONAPHTHYRIDINES AND RELATED COMPOUNDS USEFUL AS KINASE INHIBITORS FOR THE TREATMENT OF PROLIFERATIVE DISEASES” (Deciphera Pharmaceuticals, LLC, priority 2012, dated 2013).

What all share (type): biochemical
The target of one experiment is c-KIT kinase (Homo sapiens, UniProt P10721). The experiment in a line: c-KIT kinase Assay. Also noted: cKIT residues T544-V976; GST (N); TEV cleavage site (internal); purchased deCODE Biostructures. The settings on record: enzymatic assay, ATP 200 µM; read-out: KIT (wt) IC50. The protocol: In this assay, the oxidation of NADH (measured by decrease in absorbance at 340 nm) was continuously monitored spectrophotometrically. […] The absorption at 340 nm was monitored continuously for 2 hours at 30 °C on Synergy 2 (BioTeK). The reaction rate was calculated using the 0 to 1 h time frame. Percent inhibition was obtained by comparison of reaction rate with that of a control (i.e. with no test compound). IC50 values were calculated from a series of percent inhibition values determined at a range of inhibitor concentrations using software routines as implemented in the GraphPad Prism software package. The protein construct was prepared by deCODE Biostructures using procedures known in the art. The construct contains […] of cKit, an N-terminal tag, a GST-fusion sequence and a TEV cleavage site. [formula]
c-KIT kinase, sequence (P10721 544-976): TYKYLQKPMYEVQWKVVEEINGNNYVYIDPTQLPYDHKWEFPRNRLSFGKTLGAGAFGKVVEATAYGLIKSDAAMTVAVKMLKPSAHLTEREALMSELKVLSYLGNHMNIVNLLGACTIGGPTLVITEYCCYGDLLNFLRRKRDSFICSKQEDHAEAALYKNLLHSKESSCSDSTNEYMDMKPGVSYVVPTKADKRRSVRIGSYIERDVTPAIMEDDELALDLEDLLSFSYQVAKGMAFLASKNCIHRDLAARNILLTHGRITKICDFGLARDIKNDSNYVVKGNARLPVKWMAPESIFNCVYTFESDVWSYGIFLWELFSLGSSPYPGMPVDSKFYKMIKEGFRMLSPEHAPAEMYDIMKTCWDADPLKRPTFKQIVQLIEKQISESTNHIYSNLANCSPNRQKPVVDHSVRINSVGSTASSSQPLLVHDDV

A further experiment addresses T1, c-KIT T670I kinase (Homo sapiens, UniProt P10721, T670I).
T1 construct: The construct contains residues T544-V976 of cKit; GST (N); TEV cleavage site (internal); purchased deCODE Biostructures
The experiment is described as follows: c-KIT T670I kinase assay. Conditions: enzymatic assay. On the procedure: In this assay, the oxidation of NADH (measured by decrease in absorbance at 340 nm) was continuously monitored spectrophotometrically. […] The inhibition reaction was started by mixing serial diluted test compound with the above reaction mixture. The absorption at 340 nm was monitored continuously for 5 hours at 30 °C on Synergy 2 plate reader (BioTech). […] The protein construct was prepared by deCODE Biostructures using procedures known in the art. The construct contains […] of cKit, an N-terminal tag, a GST-fusion sequence and a TEV cleavage site. This construct is identical to Seq ID no. 1 except for the T670I mutation. [formula] [formula]

For another experiment, the target named is T2, c-KIT D816V kinase (Homo sapiens, UniProt P10721, D816V).
T2 construct: residues T544-V976 with N-terminal GST fusion; purchased deCODE Biostructures
T2 sequence (P10721 544-976 D816V): as the sequence (P10721 544-976) above, with D273V counted along it
The experiment is described as follows: c-KIT D816V kinase Assay. Conditions: enzymatic assay, ATP 200 uM. On the procedure: In this assay, the oxidation of NADH (measured by decrease in absorbance at 340 nm) was continuously monitored spectrophotometrically. […] The inhibition reaction was started by mixing serial diluted test compound with the above reaction mixture. The absorption at 340 nm was monitored continuously for 5 hours at 30 °C on Synergy 2 plate reader (BioTech).
(§1) The protein construct was prepared by deCODE Biostructures using procedures known in the art. The construct contains residues T544-V976 of cKit, an N-terminal tag, a GST-fusion sequence and a TEV cleavage site. This construct is identical to Seq ID no.

A further experiment deals with T3, c-KIT D816H kinase (Homo sapiens, UniProt P10721, D816H).
T3 construct: The construct contains residues T544-V976 of cKit; GST (N); TEV cleavage site (internal); purchased deCODE Biostructures
T3 sequence (P10721 544-976 D816H): as the sequence (P10721 544-976) above, with D273H counted along it
The experiment in a line: c-KIT D816H Kinase Assay. Conditions: enzymatic assay, ATP 200 µM. The protocol:
In this assay, the oxidation of NADH (measured by decrease in absorbance at 340 nm) was continuously monitored spectrophotometrically. […] The inhibition reaction was started by mixing serial diluted test compound with the above reaction mixture. The absorption at 340 nm was monitored continuously for 6 hours at 30 °C on Synergy 2 plate reader (BioTech). […] The protein construct was prepared by deCODE Biostructures using procedures known in the art. The construct contains […] of cKit, an N-terminal tag, a GST-fusion sequence and a TEV cleavage site. This construct is identical to Seq ID no.

The target in the next experiment is T4, c-KIT V654A kinase (Homo sapiens, UniProt P10721, V654A).
T4 construct: residues T544-V976 with N-terminal GST fusion; purchased deCODE Biostructures
T4 sequence (P10721 544-976 V654A): as the sequence (P10721 544-976) above, with V111A counted along it
The experiment in a line: c-KIT V654A Kinase Assay. The settings on record: enzymatic assay, ATP 200 µM. The protocol:
In this assay, the oxidation of NADH (measured by decrease in absorbance at 340 nm) was continuously monitored spectrophotometrically. […] The inhibition reaction was started by mixing serial diluted test compound with the above reaction mixture. The absorption at 340 nm was monitored continuously for 6 hours at 30 °C on Synergy 2 plate reader (BioTech).
as §1

The structures appear in SMILES notation. A value given as a limit tells only on which side of the number the result lay.

The term IC50 denotes the concentration needed to halve the response being measured.

T1 sequence (P10721 544-976 T670I): as the sequence (P10721 544-976) above, with T127I counted along it

For `CCn1c(=O)c(-c2cc(NC(=O)Nc3cccc(F)c3)c(F)cc2C)cc2cnc(NC(C)=O)cc21` [Example 78, N-(1-ethyl-3-(4-fluoro-5-(3-(3-fluorophenyl)ureido)-2-methylphenyl)-2-oxo-1,2-dihydro-1,6-naphthyridin-7-yl)acetamide], the IC50 was less than 0.01 µM on c-KIT kinase, 0.01 to 0.1 µM on c-KIT T670I kinase and 0.01 to 0.1 µM on c-KIT D816V kinase.
With `CCn1c(=O)c(-c2cc(NC(=O)Nc3ccccc3)c(F)cc2Cl)cc2cnc(N[C@@H](C)COC)cc21` [Example 43, (S)-1-(4-chloro-5-(1-ethyl-7-(1-methoxypropan-2-ylamino)-2-oxo-1,2-dihydro-1,6-naphthyridin-3-yl)-2-fluorophenyl)-3-phenylurea], the IC50 lay in the range of 0.01 to 0.1 µM at c-KIT kinase, 0.1 to 1 µM at c-KIT T670I kinase and 0.1 to 1 µM on c-KIT D816V kinase.
As to `CNc1cc2c(cn1)cc(-c1cc(NC(=O)Nc3cccc(C#N)c3)ccc1Cl)c(=O)n2C` [Example 11, 1-(4-chloro-3-(1-methyl-7-(methylamino)-2-oxo-1,2-dihydro-1,6-naphthyridin-3-yl)phenyl)-3-(3-cyanophenyl)urea], the IC50 on c-KIT D816V kinase is greater than 1 µM.
Turning to `CCn1c(=O)c(-c2cc(NC(=O)Nc3ccccc3)c(F)cc2Cl)cc2cnc(NC(=O)CC#N)cc21` [Example 65, N-(3-(2-chloro-4-fluoro-5-(3-phenylureido)phenyl)-1-ethyl-2-oxo-1,2-dihydro-1,6-naphthyridin-7-yl)-2-cyanoacetamide], the half-inhibitory concentration (IC50) on c-KIT kinase is less than 0.01 µM; at c-KIT T670I kinase, 0.01 to 0.1 µM; at c-KIT D816V kinase it was 0.01 to 0.1 µM.
As for `CCn1c(=O)c(-c2cc(NC(=O)Nc3ccccc3)c(F)cc2I)cc2cnc(NC)cc21` [Example 114, 1-(5-(1-ethyl-7-(methylamino)-2-oxo-1,2-dihydro-1,6-naphthyridin-3-yl)-2-fluoro-4-iodophenyl)-3-phenylurea], the values for the IC50 at c-KIT kinase, on c-KIT T670I kinase and at c-KIT D816V kinase were 0.01 to 0.1 µM, greater than 1 µM and 0.1 to 1 µM, respectively.
For `CCn1c(=O)c(-c2cc(NC(=O)Nc3ccccc3)c(F)cc2Cl)cc2cnc(NC(=O)COC)cc21` [Example 74, N-(3-(2-chloro-4-fluoro-5-(3-phenylureido)phenyl)-1-ethyl-2-oxo-1,2-dihydro-1,6-naphthyridin-7-yl)-2-methoxyacetamide], in that order: less than 0.01 µM, 0.01 to 0.1 µM and less than 0.01 µM.
As to `CCn1c(=O)c(-c2cc(NC(=O)Nc3cccc(CN4CCN(C)CC4)c3)c(F)cc2C)cc2cnc(NC)cc21` [Example 82, 1-(5-(1-ethyl-7-(methylamino)-2-oxo-1,2-dihydro-1,6-naphthyridin-3-yl)-2-fluoro-4-methylphenyl)-3-(3-((4-methylpiperazin-1-yl)methyl)phenyl)urea], the figures for the IC50 on c-KIT kinase, at c-KIT T670I kinase and on c-KIT D816V kinase were 0.01 to 0.1 µM, 0.1 to 1 µM and 0.1 to 1 µM, respectively.
`CCn1c(=O)c(-c2cc(NC(=O)Nc3ccccc3)c(F)cc2C)cc2cnc(NC(C)=O)cc21` [Example 80, N-(1-ethyl-3-(4-fluoro-2-methyl-5-(3-phenylureido)phenyl)-2-oxo-1,2-dihydro-1,6-naphthyridin-7-yl)acetamide]: the IC50 was less than 0.01 µM on c-KIT kinase, 0.01 to 0.1 µM on c-KIT T670I kinase, less than 0.01 µM at c-KIT D816H kinase and 0.01 to 0.1 µM on c-KIT D816V kinase.
Take `CNc1cc2c(cn1)cc(-c1cc(NC(=O)Nc3ccccc3)c(F)cc1Br)c(=O)n2C` [Example 56, 1-(4-bromo-2-fluoro-5-(1-methyl-7-(methylamino)-2-oxo-1,2-dihydro-1,6-naphthyridin-3-yl)phenyl)-3-phenylurea]: the concentration for half-maximal inhibition (IC50) on c-KIT kinase was less than 0.01 µM; at c-KIT T670I kinase, 0.1 to 1 µM; on c-KIT D816V kinase it was 0.01 to 0.1 µM.
`CCn1c(=O)c(-c2cc(NC(=O)Nc3ccc(F)c(CN4CCN(C)CC4)c3)c(F)cc2F)cc2cnc(NC)cc21` [Example 90, 1-(5-(1-ethyl-7-(methylamino)-2-oxo-1,2-dihydro-1,6-naphthyridin-3-yl)-2,4-difluorophenyl)-3-(4-fluoro-3-((4-methylpiperazin-1-yl)methyl)phenyl)urea]: the IC50 at c-KIT kinase was less than 0.01 µM; on c-KIT T670I kinase it was 0.01 to 0.1 µM; at c-KIT D816H kinase it was 0.01 to 0.1 µM; at c-KIT D816V kinase, greater than 1 µM.
With `CCn1c(=O)c(-c2cc(NC(=O)Nc3ccccc3)c(F)cc2Cl)cc2cnc(NCCN(C)C)cc21` [Example 29, 1-(4-chloro-5-(7-(2-(dimethylamino)ethylamino)-1-ethyl-2-oxo-1,2-dihydro-1,6-naphthyridin-3-yl)-2-fluorophenyl)-3-phenylurea], the IC50 is 0.01 to 0.1 µM on c-KIT kinase, 0.1 to 1 µM on c-KIT T670I kinase and 0.1 to 1 µM on c-KIT D816V kinase.
`CCn1c(=O)c(-c2cc(NC(=O)Nc3ccccc3)c(F)cc2Br)cc2cnc(NC(=O)CC#N)cc21` [Example 64, N-(3-(2-bromo-4-fluoro-5-(3-phenylureido)phenyl)-1-ethyl-2-oxo-1,2-dihydro-1,6-naphthyridin-7-yl)-2-cyanoacetamide]: the IC50 at c-KIT kinase was in the range of 0.01 to 0.1 µM; at c-KIT T670I kinase, 0.1 to 1 µM; on c-KIT D816V kinase it was 0.1 to 1 µM.
For the compound `CCn1c(=O)c(-c2cc(NC(=O)Nc3cc(F)cc(Cl)c3)c(F)cc2Cl)cc2cnc(NC)cc21` [Example 71, 1-(4-chloro-5-(1-ethyl-7-(methylamino)-2-oxo-1,2-dihydro-1,6-naphthyridin-3-yl)-2-fluorophenyl)-3-(3-chloro-5-fluorophenyl)urea], the concentration for half-maximal inhibition (IC50) on c-KIT kinase lay in the range of 0.01 to 0.1 µM; at c-KIT V654A kinase, 0.01 to 0.1 µM; on c-KIT T670I kinase it was 0.01 to 0.1 µM; at c-KIT D816V kinase it was 0.1 to 1 µM.
Regarding `CCn1c(=O)c(-c2cc(NC(=O)Nc3cc(C)cc(F)c3)c(F)cc2Cl)cc2cnc(NC)cc21` [Example 72, 1-(4-chloro-5-(1-ethyl-7-(methylamino)-2-oxo-1,2-dihydro-1,6-naphthyridin-3-yl)-2-fluorophenyl)-3-(3-fluoro-5-methylphenyl)urea], the concentration for half-maximal inhibition (IC50) is less than 0.01 µM on c-KIT kinase, 0.1 to 1 µM at c-KIT V654A kinase, less than 0.01 µM at c-KIT T670I kinase and 0.01 to 0.1 µM on c-KIT D816V kinase.
For `CCn1c(=O)c(-c2cc(NC(=O)Nc3cc(F)cc(Cl)c3)c(F)cc2C)cc2cnc(NC)cc21` [Example 69, 1-(3-chloro-5-fluorophenyl)-3-(5-(1-ethyl-7-(methylamino)-2-oxo-1,2-dihydro-1,6-naphthyridin-3-yl)-2-fluoro-4-methylphenyl)urea], the concentration for half-maximal inhibition (IC50) at c-KIT kinase fell in the range of 0.01 to 0.1 µM; at c-KIT V654A kinase it was 0.01 to 0.1 µM; on c-KIT T670I kinase, 0.01 to 0.1 µM; at c-KIT D816V kinase it was 0.1 to 1 µM.
Take `CCn1c(=O)c(-c2cc(NC(=O)Nc3cc(F)ccc3F)c(F)cc2F)cc2cnc(NC)cc21` [Example 62, 1-(2,5-difluorophenyl)-3-(5-(1-ethyl-7-(methylamino)-2-oxo-1,2-dihydro-1,6-naphthyridin-3-yl)-2,4-difluorophenyl)urea]: the concentration for half-maximal inhibition (IC50) at c-KIT kinase was less than 0.01 µM; at c-KIT T670I kinase, less than 0.01 µM; on c-KIT D816V kinase it was 0.1 to 1 µM.
Take `CCn1c(=O)c(-c2cc(NC(=O)Nc3cccc(CN4CCN(C)CC4)c3)c(F)cc2Br)cc2cnc(NC)cc21` [Example 83, 1-(4-bromo-5-(1-ethyl-7-(methylamino)-2-oxo-1,2-dihydro-1,6-naphthyridin-3-yl)-2-fluorophenyl)-3-(3-((4-methylpiperazin-1-yl)methyl)phenyl)urea]: the results for the half-maximal inhibitory concentration (IC50) on c-KIT kinase, on c-KIT T670I kinase and at c-KIT D816V kinase were less than 0.01 µM, 0.1 to 1 µM and 0.1 to 1 µM, respectively.
